Reference: ChEMBL document CHEMBL5584361, “Re-Evaluating PIN1 as a Therapeutic Target in Oncology Using Neutral Inhibitors and PROTACs” (J Med Chem, 2024)

How the values were obtained:
[1] = system: MDA-MB-468; assay: Antiproliferative activity against human MDA-MB-468 cells assessed as cell growth inhibition incubated for 96 hrs by Cell-Titer Glo assay; settings: MDA-MB-468, 96 h
[2] = system: PANC-1; assay: Antiproliferative activity against human PANC-1 cells assessed as cell growth inhibition incubated for 96 hrs by Cell-Titer Glo assay; settings: PANC-1, 96 h
[3] = target: Protein cereblon/Peptidyl-prolyl cis-trans isomerase NIMA-interacting 1 (Homo sapiens, UniProt Q13526+Q96SW2); assay: PROTAC activity at CRBN/PIN1 in human MDA-MB-468 cells assessed as induction of PIN1 degradation incubated for 24 hrs by high content analysis
Sequence of Protein cereblon/Peptidyl-prolyl cis-trans isomerase NIMA-interacting 1 (Q13526 whole entry): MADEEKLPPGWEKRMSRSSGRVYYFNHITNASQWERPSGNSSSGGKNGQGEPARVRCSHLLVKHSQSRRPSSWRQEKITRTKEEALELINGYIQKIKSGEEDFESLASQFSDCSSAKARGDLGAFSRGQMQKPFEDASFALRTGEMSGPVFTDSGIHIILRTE
Sequence of Protein cereblon/Peptidyl-prolyl cis-trans isomerase NIMA-interacting 1 (Q96SW2 whole entry): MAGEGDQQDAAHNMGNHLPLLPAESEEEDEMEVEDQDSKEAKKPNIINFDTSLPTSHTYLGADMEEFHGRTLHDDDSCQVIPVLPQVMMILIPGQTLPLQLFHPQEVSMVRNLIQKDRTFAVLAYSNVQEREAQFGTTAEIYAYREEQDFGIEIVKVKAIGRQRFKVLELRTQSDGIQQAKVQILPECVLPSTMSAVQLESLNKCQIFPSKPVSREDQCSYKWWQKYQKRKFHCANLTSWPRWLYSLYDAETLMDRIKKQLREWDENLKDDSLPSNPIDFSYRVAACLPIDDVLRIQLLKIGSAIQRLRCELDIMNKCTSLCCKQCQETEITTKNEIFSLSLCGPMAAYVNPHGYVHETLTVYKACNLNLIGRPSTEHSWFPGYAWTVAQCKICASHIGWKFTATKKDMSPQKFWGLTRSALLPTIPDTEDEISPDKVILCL

[4] = system: Huh-7; assay: Antiproliferative activity against human Huh-7 cells assessed as cell growth inhibition incubated for 96 hrs by Cell-Titer Glo assay; settings: Huh-7, 96 h
[5] = Permeability across apical to basolateral side in MDCK cells incubated for 120 mins by LC-MS/MS analysis; settings: dog
[6] = target: T1, Peptidyl-prolyl cis-trans isomerase NIMA-interacting 1 (Homo sapiens, UniProt Q13526); assay: Inhibition of His-tagged PIN1 (unknown origin) TAMRA labelled Bth-D-pThr-Pip-L-2Nal as substrate incubated for 30 mins by fluorescence polarization analysis
T1 sequence (Q13526 whole entry): as the sequence (Q13526 whole entry) above

[7] = target: T1, Peptidyl-prolyl cis-trans isomerase NIMA-interacting 1; assay: Binding affinity to GST-tagged PIN1 (unknown origin) assessed as dissociation constant by SPR analysis
[8] = target: T1, Peptidyl-prolyl cis-trans isomerase NIMA-interacting 1
[9] = Efflux ratio of permeability across basolateral to apical side over apical to basolateral side in MDCK cells incubated for 120 mins by LC-MS/MS analysis; settings: dog
[10] = target: T1, Peptidyl-prolyl cis-trans isomerase NIMA-interacting 1; assay: Inhibition of recombinant human PIN1 prolyl isomerase activity measured after 180 mins

| GI50 [1] | GI50 [2] | GI50 [4] | IC50 [6] | Structure (SMILES) | other results |
| --- | --- | --- | --- | --- | --- |
| > 30 µM | > 30 µM | > 30 µM |  | Cc1cccnc1C1(C(=O)NC(Cc2cn(-c3ccc(-c4ccc(C#N)cc4)cc3)nn2)C(=O)NC2CCN(CCCOc3cccc4c3C(=O)N(C3CCC(=O)NC3=O)C4=O)CC2)CC1 (stereo unspecified) | DC50 [3]: 0.041 µM |
| 36.8 µM | 9.3 µM | 9.9 µM |  | Cc1ccccc1C1(C(=O)NC(Cc2cn(-c3ccc(-c4ccc(C#N)cc4)cc3)nn2)C(=O)NC2CCN(C)CC2)CC1 (stereo unspecified) | Papp A→B at 2 h [5]: 0.01 ×10⁻⁶ cm/s |
|  |  |  | > 100 µM | CNC(=O)C(Cc1cn(-c2ccc(C3CCN(C)CC3)cc2)nn1)NC(=O)C1(c2ccccc2)CC1 (stereo unspecified) |  |
|  |  |  | > 10 µM | CNC(=O)C(Cc1cn(-c2ccn(C)n2)nn1)NC(=O)C1(c2ccccc2)CC1 (stereo unspecified) | Kd [7]: 39.3 µM |
| > 30 µM | > 30 µM | > 30 µM |  | Cc1cccnc1C1(C(=O)NC(Cc2cn(-c3ccc(-c4ccc(C#N)cc4)cc3)nn2)C(=O)NC2CCN(CCCCCOc3cccc4c3C(=O)N(C3CCC(=O)NC3=O)C4=O)CC2)CC1 (stereo unspecified) | DC50 [3]: 0.019 µM |
|  |  |  |  | CC(C)(C)CN(C(=O)CCl)C1CCS(=O)(=O)C1 (stereo unspecified) | Ki [8]: 0.017 µM |
|  |  |  | > 100 µM | CC(C)(C)NC(=O)C(Cc1cn(-c2ccc(-c3ccc(C#N)cc3)cc2)nn1)NC(=O)C1(c2ccccc2)CC1 (stereo unspecified) |  |
| 2.7 µM | > 30 µM | 5.8 µM |  | Cc1cccnc1C1(C(=O)NC(Cc2cn(-c3ccc(-c4ccc(C#N)cc4)cc3)nn2)C(=O)NCCCOc2cccc3c2C(=O)N(C2CCC(=O)NC2=O)C3=O)CC1 (stereo unspecified) | DC50 [3]: 0.02 µM |
|  |  |  | > 100 µM | CNC(=O)C(Cc1cn(-c2ccc(-c3ccc(C#N)cc3)cc2)nn1)NC(=O)C1(c2ccccc2)CCC1 (stereo unspecified) |  |
|  |  |  | 2.09 µM | CNC(=O)C(Cc1cn(-c2ccc(-c3ccc(C#N)cc3)cc2)nn1)NC(=O)C(C)(C)c1ccccc1 (stereo unspecified) | Kd [7]: 2.93 µM |
|  |  |  | > 100 µM | CNC(=O)C(Cc1cn(-c2ccc(-c3ccc(C#N)cc3)cc2)nn1)NC(=O)C1(c2ccccc2)CCCC1 (stereo unspecified) |  |
| 16.5 µM | > 30 µM | 20.7 µM |  | Cc1cccnc1C1(C(=O)NC(Cc2cn(-c3ccc(-c4ccc(C#N)cc4)cc3)nn2)C(=O)NCCCCOc2cccc3c2C(=O)N(C2CCC(=O)NC2=O)C3=O)CC1 (stereo unspecified) | DC50 [3]: 0.071 µM |
|  |  |  | > 100 µM | CNC(=O)C(Cc1cn(-c2ccc(-c3ccc(C#N)cc3)cc2)nn1)NC(=O)Cc1ccccc1 (stereo unspecified) |  |
| 13.8 µM | 23.1 µM | 15.4 µM | 0.25 µM | CNC(=O)/C(=C\c1cn(-c2ccc(-c3ccc(C#N)cc3)cc2)nn1)NC(=O)C1(c2ccccc2C)CC1 | Papp A→B at 2 h [5]: 0.78 ×10⁻⁶ cm/s; Kd [7]: 0.12 µM; efflux ratio at 2 h [9]: 4.77 |
| 4.6 µM | > 30 µM | > 30 µM | 0.36 µM | CNC(=O)C(Cc1cn(-c2ccc(-c3ccc(C#N)cc3)cc2)nn1)NC(=O)C1(c2ncccc2C)CC1 (stereo unspecified) | Kd [7]: 0.37 µM |
|  |  |  | > 100 µM | CNC(=O)C(Cc1cn(Cc2cc3ccccc3s2)nn1)NC(=O)C1(c2ccccc2)CC1 (stereo unspecified) | Kd [7]: > 50 µM |
|  |  |  |  | CC(C)(C)c1ccc(S(=O)(=O)/N=C2\C=C(SCC(=O)O)C(=O)c3ccccc32)cc1 | IC50 [10]: 0.64 µM |
|  |  |  | > 100 µM | CNC(=O)C(Cc1cn(-c2ccc(-c3ccc(C#N)cc3)cc2)nn1)NC(=O)C1(c2ccccc2)CCCCC1 (stereo unspecified) |  |
